How the values were obtained:
[1] = system: intracellular ROS in B16F10 cells; experiment: Intracellular ROS scavenging activity assay (DCFH-DA, SIN-1); type: cell-based, murine; conditions: ≤ 20 µM, 10 µM SIN-1, B16F10 cells
Procedure: ROS scavenging activity was determined as has previously been described by Ali et al. and Lebel and Bondy. Briefly, DCFH-DA (2′,7′-dichlorodihydrofluorescein-diacetate) (2.5 mM; Molecular Probes, Eugene, OR, USA) mixed with esterase (1.5 units/mL) in a phosphate buffer (50 mM; pH 7.4) was incubated for 30 min at 37 °C and then placed on ice in the dark until it was required. In order to determine their intracellular ROS scavenging activities, B16F10 cells (1 × 10^4/well) were seeded in black 96-well plates and incubated for 24 h. The cells were then co-treated with the analogs and SIN-1 (3-morpholinosydnonimine) (10 µM), as previously described, for 2 h. DCFH-DA (20 µM) was added for 30 min in the dark and the fluorescence intensities of the oxidized DCFH were measured using a microplate reader (Tecan, Männedorf, Switzerland) at excitation and emission wavelengths of 485 and 530 nm, respectively. Trolox was used as the positive control.
We investigated the effects of the analogs on intracellular ROS (reactive oxygen species) because, reportedly, ROS might regulate melanogenesis in melanoma cells. The principle of the intracellular ROS assay that was used is that DCFH-DA (2′,7′-dichlorodihydrofluorescein diacetate) spreads across the cell membrane and is enzymatically hydrolyzed by esterases to DCFH (2′,7′-dichlorodihydrofluorescein), which reacts with ROS in order to generate DCF (2′,7′-dichlorofluorescein), which is fluorescent. Thus, the intracellular ROS scavenging activities of (Z)-BPTT analogs 1–3 and 6 were investigated in vitro using DCFH-DA. SIN-1 (3-morpholinosydnonimine) and trolox were used as a RNS/ROS generator [54] and a positive control, respectively.

[2] = biological target: T1, cellular tyrosinase in B16F10 cells (Mus musculus, UniProt P11344); experiment: Cellular tyrosinase activity (L-DOPA oxidation in lysates); type: cell-based, murine; conditions: for inhibition of α-MSH plus IBMX-induced cellular tyrosinase activity compared with kojic acid: analog at 20 µM
T1 construct: endogenous in cells; host or cells: B16F10 murine melanoma cells (ATCC), stimulated with α-MSH and IBMX
T1 sequence (P11344 19-533): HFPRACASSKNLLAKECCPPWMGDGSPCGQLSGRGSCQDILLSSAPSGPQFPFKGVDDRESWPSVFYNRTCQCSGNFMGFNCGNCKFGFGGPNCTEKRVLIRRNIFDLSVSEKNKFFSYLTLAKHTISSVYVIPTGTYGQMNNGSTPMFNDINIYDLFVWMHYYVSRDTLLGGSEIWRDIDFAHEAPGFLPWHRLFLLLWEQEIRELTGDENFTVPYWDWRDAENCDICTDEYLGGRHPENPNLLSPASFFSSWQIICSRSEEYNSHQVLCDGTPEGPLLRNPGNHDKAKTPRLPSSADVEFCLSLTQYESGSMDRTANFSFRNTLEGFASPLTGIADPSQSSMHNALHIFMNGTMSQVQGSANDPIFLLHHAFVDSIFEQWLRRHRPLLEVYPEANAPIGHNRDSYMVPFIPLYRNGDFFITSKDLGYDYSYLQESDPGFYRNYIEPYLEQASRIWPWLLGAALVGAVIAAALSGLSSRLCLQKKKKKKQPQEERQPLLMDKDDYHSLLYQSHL
Procedure: The cellular tyrosinase activity was examined by assessing the oxidation rate of L-DOPA, as was previously described, with a slight modification. In brief, B16F10 cells were seeded at a density of 1 × 10^5 cells/well in a 6-well plate and allowed to adhere to the well bases using the same conditions that were used for cell culturing. […] After incubation for 48 h under the same conditions that were used for cell culturing, the cells were rinsed twice with PBS and then exposed to 100 µL of a lysis buffer solution (90 µL of 50 mM phosphate buffer in pH 6.5, 5 µL of 2 mM PMSF, and 5 µL of 20% Triton X-100) and held for 30 min at −80 °C. After defrosting, the cell lysates were centrifuged at 12,000 rpm for 30 min at 4 °C. Then, 10 mM L-DOPA (20 µL) was mixed with the supernatants (80 µL) of the lysates in a 96-well plate. The absorbances of these mixtures were measured at 492 nm every 10 min for 1 h at 37 °C using a microplate reader (VersaMax™, Molecular Devices, Sunnyvale, CA, USA). All of these experiments were conducted individually in triplicate. […] Briefly, B16F10 cells were seeded in 6-well culture plates and pretreated with four different concentrations (0, 5, 10, or 20 µM) of each of the four analogs for 1 h, and then the cells were co-stimulated with α-MSH and IBMX for 48 h at 37 °C so as to increase their cellular tyrosinase activity. Their optical densities (ODs) were then measured using a microplate reader at 492 nm in order to quantify the dopachrome production. The inhibitory effect of each analog on cellular tyrosinase activity was evaluated using these ODs. Kojic acid (20 µM) was used as a positive control.

B16F10 cells = experiment: Melanin content assay in α-MSH plus IBMX-stimulated cells; type: cell-based, murine; conditions: for reduction of α-MSH plus IBMX-induced increase in melanin content: 48 h, B16F10 cells; for effect on melanin content compared with kojic acid: analog at 5 µM
Procedure: Briefly, B16F10 cells were seeded at a density of 1 × 10^5 cells per well in 6-well plates and allowed to adhere to the well bases under the same conditions that were used for cell culturing. […] In order to determine the melanin contents, the B16F10 cells that were exposed to α-MSH and IBMX for 48 h were rinsed with PBS twice and incubated in 200 µL of 1 N NaOH solution containing 10% dimethyl sulfoxide (DMSO) for 1 h at 60 °C. The cell lysates were transferred to a 96-well plate and the absorbances at 405 nm were measured using a microplate reader (VersaMax™, Molecular Devices, Sunnyvale, CA, USA). These experiments were performed individually in triplicate. B16F10 cells were seeded in 6-well culture plates and pretreated with analogs 1, 3, and 6 at concentrations of 0, 5, 10, or 20 µM and with analog 2 at 0, 2.5, 5, or 10 µM for 1 h. α-Melanocyte-stimulating hormone (α-MSH; 1 µM) and 3-isobutyl-1-methylxanthine (IBMX; 200 µM) were added sequentially in order to enhance melanin production. After incubation for 48 h at 37 °C, the melanin contents were assessed by measuring the well optical densities at 405 nm using a microplate reader. Kojic acid (10 or 20 µM) was used as a positive control.

[3] = Calculated log p (ChemDraw Ultra 12.0); conditions: from calculated log p 3.16 vs. –2.45
Source text: In order to determine how well the (Z)-BPTT analogs are absorbed by skin, their log p (partition coefficient) values were examined using ChemDraw Ultra Ver. 12.0.

Row | Structure (SMILES) | intracellular ROS scavenging activity [1] | inhibition of α-MSH plus IBMX-induced cellular tyrosinase activity compared with kojic acid [2] | reduction of α-MSH plus IBMX-induced increase in melanin content (B16F10 cells; 20 µM) [%] | effect on melanin content compared with kojic acid (B16F10 cells) | partition coefficient relative to kojic acid [3] | cellular tyrosinase activity as percentage of non-treated control ([2]; 10 µM, α-MSH plus IBMX co-stimulated) [%] | inhibition of cellular tyrosinase activity compared with kojic acid ([2]; analog at 5 µM) | melanin suppression relative to kojic acid at 10 µM (B16F10 cells; 10 µM) [fold] | reduction of α-MSH plus IBMX-induced increase in melanin content (B16F10 cells; 10 µM) [%] | suppression of α-MSH plus IBMX-induced melanogenesis compared with kojic acid (B16F10 cells; analog at 2.5 µM)
1 | O=C1/C(=C/c2ccc(O)cc2)SC(=S)N1c1ccccc1 [Analog 1, (Z)-5-(4-Hydroxybenzylidene)-3-phenyl-2-thioxothiazolidin-4-one] | did not show ROS scavenging activity | more than kojic acid at 20 µM | 56.3 | as effective as kojic acid at 20 µM | – | – | – | – | – | –
2 | O=C1/C(=C/c2ccc(O)c(O)c2)SC(=S)N1c1ccccc1 [Analog 2, (Z)-5-(3,4-Dihydroxybenzylidene)-3-phenyl-2-thioxothiazolidin-4-one] | significantly and concentration-dependently reduced SIN-1-induced increases in the intracellular ROS activity and it did so to a greater extent than trolox | – | – | – | 10^5 fold | < 100 | significantly inhibited tyrosinase activity more than kojic acid did at 20 µM | 4.1 | 89.6 | as effectively as kojic acid at 10 µM
3 | O=C1/C(=C/c2ccc(O)cc2O)SC(=S)N1c1ccccc1 [Analog 3, (Z)-5-(2,4-Dihydroxybenzylidene)-3-phenyl-2-thioxothiazolidin-4-one] | – | more than kojic acid at 20 µM | 61.3 | as effective as kojic acid at 20 µM | 10^5 fold | – | – | – | – | –
4 | COc1ccc(/C=C2\SC(=S)N(c3ccccc3)C2=O)cc1O [Analog 6, (Z)-5-(3-Hydroxy-4-methoxybenzylidene)-3-phenyl-2-thioxothiazolidin-4-one] | did not show ROS scavenging activity | more than kojic acid at 20 µM | 50.9 | as effective as kojic acid at 20 µM | – | – | – | – | – | –

— article PMC9137581, “Identification of a Novel Class of Anti-Melanogenic Compounds, (Z)-5-(Substituted benzylidene)-3-phenyl-2-thioxothiazolidin-4-one Derivatives, and Their Reactive Oxygen Species Scavenging Activities” (Antioxidants, 2022)
